In patent US8088815B2, “Spiroindolinone pyrrolidines” (Hoffman-La Roche Inc., priority 2009, dated 2012) one finds IC50 data, which are given here for 19 compounds.

SMILES strings stand for the structures.

In general, IC50 refers to the concentration needed to halve the response being measured.

The assay deals with interaction between p53 and MDM2 proteins (Homo sapiens, UniProt Q00987). Put plainly: HTRF assay of inhibition of the p53-MDM2 interaction (GST-MDM2 / biotinylated p53 peptide). Particulars: recombinant GST-tagged MDM2 and biotinylated p53 peptide, bsa:0.02%. Format: binding. (In TR-FRET formats the signal depends on donor and acceptor labels being close together.)
Chain of interaction between p53 and MDM2 proteins (Q00987 whole entry): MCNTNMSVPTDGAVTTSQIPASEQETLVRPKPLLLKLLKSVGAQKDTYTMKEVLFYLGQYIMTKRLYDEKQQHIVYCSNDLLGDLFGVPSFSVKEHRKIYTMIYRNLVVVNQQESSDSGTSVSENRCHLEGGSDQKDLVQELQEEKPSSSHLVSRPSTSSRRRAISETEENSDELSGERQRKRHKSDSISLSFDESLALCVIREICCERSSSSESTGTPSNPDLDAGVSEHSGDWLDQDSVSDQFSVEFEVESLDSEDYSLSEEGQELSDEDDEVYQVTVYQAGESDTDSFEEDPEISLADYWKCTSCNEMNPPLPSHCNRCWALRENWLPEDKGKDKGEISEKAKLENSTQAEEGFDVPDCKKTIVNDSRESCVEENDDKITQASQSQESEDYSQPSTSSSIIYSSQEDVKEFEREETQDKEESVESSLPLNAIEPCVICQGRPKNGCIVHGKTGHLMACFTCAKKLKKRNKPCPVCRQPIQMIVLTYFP
Consider `COc1cc(C(=O)O)c(F)cc1NC(=O)[C@@H]1N[C@@H](CC(C)(C)C)[C@@]2(C(=O)Nc3cc(Cl)ccc32)[C@H]1c1cccc(Cl)c1F` [Example 221, chiral 4-{[(2′S,3′R,4′S,5′R)-6-chloro-4′-(3-chloro-2-fluoro-phenyl)-2′-(2,2-dimethyl-propyl)-2-oxo-1,2-dihydro-spiro[indole-3,3′-pyrrolidine]-5′-carbonyl]amino}-2-fluoro-5-methoxy-benzoic acid], for which the IC50 is 5 nM.

Consider `CC(C)(C)C[C@@H]1N[C@@H](C(=O)Nc2ccc(C(N)=O)cc2)[C@H](c2cccc(Cl)c2)[C@]12C(=O)Nc1cc(Cl)ccc12` [Example 65B, chiral (2′S,3′R,4′R,5′R)-6-chloro-4′-(3-chloro-phenyl)-2′-(2,2-dimethyl-propyl)-2-oxo-1,2-dihydro-spiro[indole-3,3′-pyrrolidine]-5′-carboxylic acid (4-carbamoyl-phenyl)-amide], for which the IC50 amounted to 6 nM.

`CC(C)(C)C[C@@H]1N[C@@H](C(=O)Nc2ccc(OCC(=O)O)cc2)[C@H](c2cccc(Cl)c2F)[C@]12C(=O)Nc1cc(Cl)ccc12` (racemic) [Example 206, rac-(4-{[(2′S,3′R,4′S,5′R)-6-chloro-4′-(3-chloro-2-fluoro-phenyl)-2′-(2,2-dimethyl-propyl)-2-oxo-1,2-dihydro-spiro[indole-3,3′-pyrrolidine]-5′-carbonyl]amino}-phenoxy)-acetic acid]: the IC50 was found to be 6 nM.

In the case of `COc1cc(C#N)ccc1NC(=O)[C@@H]1N[C@@H](CC(C)(C)C)[C@@]2(C(=O)Nc3cc(Cl)ccc32)[C@H]1c1cccc(Br)c1F` (racemic) [Example 116, rac-(2′S,3′R,4′S,5′R)-4′-(3-bromo-2-fluoro-phenyl)-6-chloro-2′-(2,2-dimethyl-propyl)-2-oxo-1,2-dihydro-spiro[indole-3,3′-pyrrolidine]-5′-carboxylic acid (4-cyano-2-methoxy-phenyl)-amide], the IC50 was 15 nM.

As for `COc1cc(C(N)=O)ccc1NC(=O)[C@@H]1N[C@@H](CC(C)(C)C)[C@@]2(C(=O)Nc3c2ccc(Cl)c3F)[C@H]1c1cccc(Cl)c1F` (racemic) [Example 178, rac-(2′S,3′R,4′S,5′R)-6-chloro-4′-(3-chloro-2-fluoro-phenyl)-2′-(2,2-dimethyl-propyl)-7-fluoro-2-oxo-1,2-dihydro-spiro[indole-3,3′-pyrrolidine]-5′-carboxylic acid (4-carbamoyl-2-methoxy-phenyl)-amide], the IC50 amounted to 15 nM.

On to `CC(C)(C)C[C@@H]1N[C@@H](C(=O)Nc2ccc(F)cc2)[C@H](c2cccc(Cl)c2F)[C@]12C(=O)Nc1cc(Cl)ccc12` (racemic) [Example 13, rac-(2′S,3′R,4′S,5′R)-6-chloro-4′-(3-chloro-2-fluoro-phenyl)-2′-(2,2-dimethyl-propyl)-2-oxo-1,2-dihydro-spiro[indole-3,3′-pyrrolidine]-5′-carboxylic acid (4-fluoro-phenyl)-amide], for which the IC50 came out at 19 nM.

Regarding `COc1cc(CC(=O)O)ccc1NC(=O)[C@@H]1N[C@@H](CC(C)(C)C)[C@@]2(C(=O)Nc3cc(Cl)ccc32)[C@H]1c1cccc(Cl)c1F` [Example 160, chiral (4-{[(2′S,3′R,4′S,5′R)-6-chloro-4′-(3-chloro-2-fluoro-phenyl)-2′-(2,2-dimethyl-propyl)-2-oxo-1,2-dihydro-spiro[indole-3,3′-pyrrolidine]-5′-carbonyl]-amino}-3-methoxy-phenyl)-acetic acid], the IC50 was 5 nM.

For the compound `Cn1cccc1NC(=O)[C@@H]1N[C@@H](CC(C)(C)C)[C@@]2(C(=O)Nc3cc(Cl)ccc32)[C@H]1c1cccc(Cl)c1F` (racemic) [Example 195, rac-(2′S,3′R,4′S,5′R)-6-chloro-4′-(3-chloro-2-fluoro-phenyl)-2′-(2,2-dimethyl-propyl)-2-oxo-1,2-dihydro-spiro[indole-3,3′-pyrrolidine]-5′-carboxylic acid (1-methyl-1H-pyrrol-2-yl)-amide], the IC50 stood at 15 nM.

For `COc1cc(C(N)=O)ccc1NC(=O)[C@@H]1N[C@@H](CC(C)(C)C)[C@@]2(C(=O)Nc3cc(Cl)ccc32)[C@H]1c1cccc(Cl)c1` (racemic) [Example 67, rac-(2′S,3′R,4′R,5′R)-6-chloro-4′-(3-chloro-phenyl)-2′-(2,2-dimethyl-propyl)-2-oxo-1,2-dihydro-spiro[indole-3,3′-pyrrolidine]-5′-carboxylic acid (4-carbamoyl-2-methoxy-phenyl)-amide], the IC50 came to 10 nM.

Turning to `COC(=O)c1ccc(NC(=O)[C@@H]2N[C@@H](CC(C)(C)C)[C@@]3(C(=O)Nc4cc(Cl)ccc43)[C@H]2c2cccc(Cl)c2F)cc1` (racemic) [Example 5, rac-4-{[(2′S,3′R,4′S,5′R)-6-chloro-4′-(3-chloro-2-fluoro-phenyl)-2′-(2,2-dimethyl-propyl)-2-oxo-1,2-dihydro-spiro[indole-3,3′-pyrrolidine]-5′-carbonyl]-amino}-benzoic acid methyl ester], the IC50 stood at 16 nM.

Consider `CC(C)(C)C[C@@H]1N[C@@H](C(=O)Nc2ccc(C(N)=O)cc2)[C@H](c2cccc(Cl)c2F)[C@]12C(=O)Nc1c2ccc(Cl)c1F` (racemic) [Example 176, rac-(2′S,3′R,4′S,5′R)-6-chloro-4′-(3-chloro-2-fluoro-phenyl)-2′-(2,2-dimethyl-propyl)-7-fluoro-2-oxo-1,2-dihydro-spiro[indole-3,3′-pyrrolidine]-5′-carboxylic acid (4-carbamoyl-phenyl)-amide], for which the IC50 was found to be 18 nM.

For `COc1cc(C(N)=O)ccc1NC(=O)[C@@H]1N[C@@H](CC(C)(C)C)[C@@]2(C(=O)Nc3cc(Cl)cc(F)c32)[C@H]1c1cccc(Cl)c1F` [Example 77, chiral (2′S,3′R,4′S,5′R)-6-chloro-4′-(3-chloro-2-fluoro-phenyl)-2′-(2,2-dimethyl-propyl)-4-fluoro-2-oxo-1,2-dihydro-spiro[indole-3,3′-pyrrolidine]-5′-carboxylic acid (4-carbamoyl-2-methoxy-phenyl)-amide], the IC50 was found to be 5 nM.

As for `CC(C)(C)C[C@@H]1N[C@@H](C(=O)Nc2ccc(C#N)cc2)[C@H](c2cc(F)cc(Cl)c2)[C@]12C(=O)Nc1cc(Cl)ccc12` (racemic) [Example 88, rac-(2′S,3′R,4′R,5′R)-6-chloro-4′-(3-chloro-5-fluoro-phenyl)-2′-(2,2-dimethyl-propyl)-2-oxo-1,2-dihydro-spiro[indole-3,3′-pyrrolidine]-5′-carboxylic acid (4-cyano-phenyl)-amide], the IC50 stood at 13 nM.

`COc1cc(N(C)C)ccc1NC(=O)[C@@H]1N[C@@H](CC(C)(C)C)[C@@]2(C(=O)Nc3cc(Cl)ccc32)[C@H]1c1cccc(Cl)c1F` (racemic) [Example 164, rac-(2′S,3′R,4′S,5′R)-6-chloro-4′-(3-chloro-2-fluoro-phenyl)-2′-(2,2-dimethyl-propyl)-2-oxo-1,2-dihydro-spiro[indole-3,3′-pyrrolidine]-5′-carboxylic acid (4-dimethylamino-2-methoxy-phenyl)-amide]: the IC50 worked out at 18 nM.

Regarding `COc1cc(CC(N)=O)ccc1NC(=O)[C@@H]1N[C@@H](CC(C)(C)C)[C@@]2(C(=O)Nc3cc(Cl)ccc32)[C@H]1c1cccc(Cl)c1F` [Example 161, chiral (2′S,3′R,4′S,5′R)-6-chloro-4′-(3-chloro-2-fluoro-phenyl)-2′-(2,2-dimethyl-propyl)-2-oxo-1,2-dihydro-spiro[indole-3,3′-pyrrolidine]-5′-carboxylic acid (4-carbamoylmethyl-2-methoxy-phenyl)-amide], the IC50 came to 4 nM.

As for `CC(C)(C)C[C@@H]1N[C@@H](C(=O)Nc2ccc(CCC(=O)O)cc2)[C@H](c2cccc(Cl)c2F)[C@]12C(=O)Nc1cc(Cl)ccc12` (racemic) [Example 209, rac-3-(4-{[(2′S,3′R,4′S,5′R)-6-chloro-4′-(3-chloro-2-fluoro-phenyl)-2′-(2,2-dimethyl-propyl)-2-oxo-1,2-dihydro-spiro[indole-3,3′-pyrrolidine]-5′-carbonyl]-amino}-phenyl)-propionic acid], the IC50 was 4 nM.

As for `CC(C)(C)C[C@@H]1N[C@@H](C(=O)Nc2ccc(C#N)s2)[C@H](c2cccc(Cl)c2F)[C@]12C(=O)Nc1cc(Cl)ccc12` (racemic) [Example 187, rac-(2′S,3′R,4′S,5′R)-6-chloro-4′-(3-chloro-2-fluoro-phenyl)-2′-(2,2-dimethyl-propyl)-2-oxo-1,2-dihydro-spiro[indole-3,3′-pyrrolidine]-5′-carboxylic acid (5-cyano-thiophen-2-yl)-amide], the IC50 was 15 nM.

As for `CC(C)(C)C[C@@H]1N[C@@H](C(=O)Nc2ccc(C(N)=O)cc2)[C@H](c2cccc(Cl)c2F)[C@]12C(=O)Nc1cc(Cl)cc(F)c12` (racemic) [Example 73, rac-(2′S,3′R,4′S,5′R)-6-chloro-4′-(3-chloro-2-fluoro-phenyl)-2′-(2,2-dimethyl-propyl)-4-fluoro-2-oxo-1,2-dihydro-spiro[indole-3,3′-pyrrolidine]-5′-carboxylic acid (4-carbamoyl-phenyl)-amide], the IC50 stood at 11 nM.

In the case of `CC(C)(C)C[C@@H]1N[C@@H](C(=O)Nc2ccc(C(N)=O)cc2)[C@H](c2cccc(Cl)c2F)[C@]12C(=O)Nc1cc(Br)ccc12` (racemic) [Example 94, rac-(2′S,3′R,4′S,5′R)-6-bromo-4′-(3-chloro-2-fluoro-phenyl)-2′-(2,2-dimethyl-propyl)-2-oxo-1,2-dihydro-spiro[indole-3,3′-pyrrolidine]-5′-carboxylic acid (4-carbamoyl-phenyl)-amide], the IC50 was 12 nM.
